Measured values taken from patent US20230364029A1, “POLYMORPHIC FORMS OF (R)-2-HYDROXY-2-METHYL-4-(2,4,5-TRIMETHYL-3,6-DIOXOCYCLOHEXA-1,4-DIENYL)BUTANAMIDE” (PTC THERAPEUTICS, INC., priority 2014, published 2023).
In brackets after ≈: the same amount, converted by molar mass.

Experiments:
Type in all cases: physicochemical
[1] = 7 day elevated aqueous humidity studies; conditions: for Visual Observations 1 day / Visual Observations 7 day / XRPD [Pattern] 7 day: > 95 %RH at Ambient; for XRPD [Pattern] 7 day: form after 7 days; for Stability to elevated humidity: Example 8, summary statement
Procedure: 7 day elevated aqueous humidity experiments were performed on all Patterns A, B, C, D, E and F at ambient conditions at > 95%RH (Table 17). Approximately 30 mg of each pattern was weighed into a 4 ml glass vial. The uncovered 4 ml vial was inserted into a 20 ml scintillation vial half filled with water and capped. Following 24 hours of equilibration, visual inspection was performed to check for changes in physical appearance, however no change was observed.

[2] = Moisture sorption analysis; conditions: for XRPD following moisture sorption analysis: after 0-95% RH cycles at 25° C.; for Hygroscopicity: moisture sorption, 0-95% RH cycles; for Hygroscopicity / Water adsorbed / Hysteresis upon desorption: 25° C.; for Water adsorbed: at 95 %RH; for Hysteresis upon desorption: moisture sorption-desorption
Procedure: (§1) Moisture sorption analysis of the starting material was performed by equilibrating the sample at 25° C. and 50% RH to simulate ambient lab conditions. Humidity then decreased to 0% RH, increased from 0 to 95% RH, reduced from 95 to 0% RH, increased from 0 to 95 %RH and then decreased from 95 to 50% RH. Each point represents the estimated asymptotic weight for each humidity or weight. […] No hysteresis was observed upon desorption (FIG. 14).
as §1, with “of Pattern E (from” for “of”, “300 mg scale lot)” for “starting material”, “Humidity was” for “Humidity”, “19).” for “14).”
Moisture sorption analysis of Pattern C (300 mg lot) was performed by equilibrating the sample at 25° C. and 50% RH to simulate ambient lab conditions. Humidity was then decreased to 0% RH, increased from 0 to 95% RH, reduced from 95 to 0% RH, increased from 0 to 95%RH and then decreased from 95 to 50% RH. Each point represents the estimated asymptotic weight for each humidity or weight. […] This increased the total water to about 6% which is the water content of mono-hydrate. However, upon reducing the relative humidity, the solid lost its water. Therefore this could be a channel hydrate. No hysteresis was observed upon desorption (FIG. 24).
as §1, with “Pattern B (300 mg lot)” for “the starting material”, “The major weight loss at the beginning” for “No hysteresis”, “due to loss of solvent.” for “observed upon desorption (FIG. 14).”
as §1, with “Pattern F (from Example 6)” for “the starting material”, “Humidity was” for “Humidity”, “The major weight loss at the beginning is due to loss of solvent.” for “No hysteresis was observed upon desorption (FIG. 14).”

[3] = Aqueous solubility (HPLC); conditions: water, ambient conditions, 24 hours of equilibration
Procedure: Aqueous solubility of Patterns A, B, C, E and F was performed using an Agilent HPLC system. Approximately 10-20 mg of each form was charged to a 2 mL glass vial loaded with a magnetic stir bar and added 2 mL of water. The samples were allowed to stir overnight at ambient conditions. Following 24 hours of equilibration the samples were centrifuged and decanted into HPLC vials. A calibration curve was generated based on Pattern A in MeOH at 0.05, 0.1, 0.5 and 1.0 mg/mL. Following injection of the standard curve, the samples were run as is.

Compound	Visual Observations 1 day [1]	Visual Observations 7 day [1]	XRPD [Pattern] 7 day [1]	XRPD [Pattern] 7 day ([1]; listed as B)	XRPD following moisture sorption analysis [2]	Hygroscopicity [2]	Hygroscopicity ([2]; listed as Form IV)	Solubility (aqueous) [3]	XRPD [Pattern] 7 day ([1]; listed as C)	Stability to elevated humidity [1]	Total water after adsorption ([2]; at 95%RH)	Water adsorbed [2]	Hysteresis upon desorption [2]	XRPD [Pattern] 7 day ([1]; listed as D)	XRPD [Pattern] 7 day ([1]; listed as E)	Hygroscopicity ([2]; listed as Form II)	XRPD [Pattern] 7 day ([1]; listed as F)	Hygroscopicity ([2]; listed as Form VI)
CC1=C(C)C(=O)C(CC[C@@](C)(O)C(N)=O)=C(C)C1=O [Pattern B, (R)-2-hydroxy-2-methyl-4-(2,4,5-trimethyl-3,6-dioxocyclohexa-1,4-dienyl)butanamide]	Yellow solids	Yellow solids	mixture of Patterns A/B	Crystalline [Mixture of Patterns A/B]	consistent with Pattern A	non-hygroscopic	non-hygroscopic	1300 µg/mL (≈ 4.9 mM)										
CC1=C(C)C(=O)C(CC[C@@](C)(O)C(N)=O)=C(C)C1=O [Pattern C, (R)-2-hydroxy-2-methyl-4-(2,4,5-trimethyl-3,6-dioxocyclohexa-1,4-dienyl)butanamide]	Yellow solids	Yellow solids	no change in form		consistent with Pattern C	slightly hygroscopic		1320 µg/mL (≈ 4.98 mM)	Crystalline [Pattern C]	stability to elevated humidity	about 6%	2%	No hysteresis					
CC1=C(C)C(=O)C(CC[C@@](C)(O)C(N)=O)=C(C)C1=O [Pattern D, (R)-2-hydroxy-2-methyl-4-(2,4,5-trimethyl-3,6-dioxocyclohexa-1,4-dienyl)butanamide]	Yellow solids	Yellow solids	mixture of Patterns D/B											Crystalline [Mixture of Patterns D/B]				
CC1=C(C)C(=O)C(CC[C@@](C)(O)C(N)=O)=C(C)C1=O [Pattern E, (R)-2-hydroxy-2-methyl-4-(2,4,5-trimethyl-3,6-dioxocyclohexa-1,4-dienyl)butanamide]	Yellow solids	Yellow solids	no change in form		consistent with Pattern E	non-hygroscopic		1320 µg/mL (≈ 4.98 mM)		stability to elevated humidity		0.2%	No hysteresis		Crystalline [Pattern E]	non-hygroscopic		
CC1=C(C)C(=O)C(CC[C@@](C)(O)C(N)=O)=C(C)C1=O [Pattern F, (R)-2-hydroxy-2-methyl-4-(2,4,5-trimethyl-3,6-dioxocyclohexa-1,4-dienyl)butanamide]	Yellow solids	Yellow solids	converted to Pattern E		consistent with Pattern E	non-hygroscopic		1360 µg/mL (≈ 5.13 mM)									Crystalline [Pattern E]	non-hygroscopic
